Results: patent publication US20080132505A1 (Glaxo Group Limited, priority 2004, published 2008)
Structures can show the parent of a compound that is named as a salt. Where two headings read alike, the source gives them in different places.

Biological target: human cannabinoid CB2 receptor (Homo sapiens, UniProt P34972)
Test: Cannabinoid CB2 receptor agonist activity (yeast reporter assay, FDGlu fluorescence)
Assay type: cell-based
Details: for Emax: read-out: efficacy value (Emax relative to HU210) at the cloned human cannabinoid CB2 receptor
Summary of the method: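 S. cerevisiae MMY23 expressing human CB2 with a Gpa1/Gαi3 chimeric G-protein, grown 24 h at 30 °C with agonist (1% DMSO) in selective media containing 10 mM 3-aminotriazole and FDGlu, pH 7.0. Fluorescein fluorescence (485/535 nm) fitted by four-parameter curve; Emax and EMR relative to HU210.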

[1] = EC50 value at the cloned human cannabinoid CB2 receptor
[2] = read-out: EC50 value at the cloned human cannabinoid CB2 receptor

human cannabinoid CB2 receptor, sequence (P34972 whole entry): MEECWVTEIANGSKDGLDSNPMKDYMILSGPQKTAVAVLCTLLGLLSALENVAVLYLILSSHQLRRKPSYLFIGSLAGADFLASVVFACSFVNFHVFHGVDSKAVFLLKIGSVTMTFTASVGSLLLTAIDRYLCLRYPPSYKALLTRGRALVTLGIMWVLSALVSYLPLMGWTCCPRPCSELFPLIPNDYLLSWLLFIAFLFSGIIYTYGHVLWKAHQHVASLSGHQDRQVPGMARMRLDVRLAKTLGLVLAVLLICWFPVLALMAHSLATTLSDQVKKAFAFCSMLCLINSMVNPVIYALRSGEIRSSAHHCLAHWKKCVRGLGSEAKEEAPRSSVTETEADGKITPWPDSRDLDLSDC

| Compound | EC50 [1] [nM] | Emax [%] | EC50 [2] [nM] |
| --- | --- | --- | --- |
| CN(Cc1ccccc1)C(=O)c1cnc(Nc2cccc(Cl)c2)nc1C(F)(F)F [Example 268, 2-(3-Chlorophenylamino)-4-trifluoromethylpyrimidine-5-carboxylic acid N-benzyl-N-methylamide] | 20 to 300 | – | – |
| COc1ccc(CNC(=O)c2cnc(Nc3cccc(Cl)c3)nc2C(F)(F)F)cc1 [Example 269, 2-(3-Chlorophenylamino)-4-trifluoromethylpyrimidine-5-carboxylic acid 4-methoxybenzyl-amide] | 20 to 300 | > 50 | – |
| O=C(NCc1ccc(F)cc1)c1cnc(Nc2cccc(Cl)c2)nc1C(F)(F)F [Example 270, 2-(3-Chlorophenylamino)-4-trifluoromethylpyrimidine-5-carboxylic acid 4-fluorobenzyl-amide] | – | – | 20 to 300 |
| N#Cc1ccc(CNC(=O)c2cnc(Nc3cccc(Cl)c3)nc2C(F)(F)F)cc1 [Example 271, 2-(3-Chlorophenylamino)-4-trifluoromethylpyrimidine-5-carboxylic acid 4-cyanobenzyl-amide] | 20 to 300 | > 50 | – |
| CN(Cc1ccccc1)C(=O)c1cnc(Nc2cccc(Cl)c2Cl)nc1C(F)(F)F [Example 272, 2-(2,3-Dichlorophenylamino)-4-trifluoromethylpyrimidine-5-carboxylic acid N-benzyl-N-methylamide] | 20 to 300 | – | – |
| O=C(NCc1ccccc1)c1cnc(Nc2ccc(Cl)cc2Cl)nc1C(F)(F)F [Example 273, 2-(2,4-Dichlorophenylamino)-4-trifluoromethylpyrimidine-5-carboxylic acid benzyl-amide] | 20 to 300 | – | – |
| O=C(NCc1ccccc1)c1cnc(Nc2ccc(Cl)c(Cl)c2)nc1C(F)(F)F [Example 274, 2-(3,4-Dichlorophenylamino)-4-trifluoromethylpyrimidine-5-carboxylic acid benzyl-amide] | 20 to 300 | – | – |
| CN(Cc1ccccc1)C(=O)c1cnc(Nc2c(Cl)cccc2Cl)nc1C(F)(F)F [Example 275, 2-(2,6-Dichlorophenylamino)-4-trifluoromethylpyrimidine-5-carboxylic acid N-benzyl-N-methylamide] | 20 to 300 | – | – |
| O=C(NCc1ccccc1)c1cnc(Nc2cc(Cl)cc(Cl)c2)nc1C(F)(F)F [Example 276, 2-(3,5-Dichlorophenylamino)-4-trifluoromethylpyrimidine-5-carboxylic acid benzyl-amide] | 20 to 300 | – | – |
| O=C(NCc1ccccc1)c1cnc(Nc2cccc(F)c2)nc1C(F)(F)F [Example 277, 2-(3-Fluorophenylamino)-4-trifluoromethylpyrimidine-5-carboxylic acid benzyl-amide] | 20 to 300 | > 50 | – |
| O=C(NCc1ccccc1)c1cnc(Nc2cccc(Br)c2)nc1C(F)(F)F [Example 278, 2-(3-Bromophenylamino)-4-trifluoromethylpyrimidine-5-carboxylic acid benzyl-amide] | 20 to 300 | > 50 | – |
| CN(Cc1ccccc1)C(=O)c1cnc(Nc2cccc(Br)c2)nc1C(F)(F)F [Example 279, 2-(3-Bromophenylamino)-4-trifluoromethylpyrimidine-5-carboxylic acid N-benzyl-N-methylamide] | 20 to 300 | – | – |
| COc1ccccc1Nc1ncc(C(=O)NCc2ccccc2)c(C(F)(F)F)n1 [Example 280, 2-(2-Methoxyphenylamino)-4-trifluoromethylpyrimidine-5-carboxylic acid benzyl-amide] | 20 to 300 | > 50 | – |
| O=C(NCc1ccncc1)c1cnc(Nc2cccc(Cl)c2Cl)nc1C(F)(F)F [Example 281, 2-(2,3-Dichlorophenylamino)-4-trifluoromethylpyrimidine-5-carboxylic acid (pyridin-4-ylmethyl)amide] | 20 to 300 | – | – |
| O=C(NCc1ccncc1)c1cnc(Nc2ccc(Cl)cc2Cl)nc1C(F)(F)F [Example 282, 2-(2,4-Dichlorophenylamino)-4-trifluoromethylpyrimidine-5-carboxylic acid (pyridin-4-ylmethyl)amide] | 20 to 300 | – | – |
| O=C(NCc1ccncc1)c1cnc(Nc2ccc(Cl)c(Cl)c2)nc1C(F)(F)F [Example 283, 2-(3,4-Dichlorophenylamino)-4-trifluoromethylpyrimidine-5-carboxylic acid (pyridin-4-ylmethyl)amide] | 20 to 300 | – | – |
| O=C(NCc1ccncc1)c1cnc(Nc2cc(Cl)ccc2Cl)nc1C(F)(F)F [Example 284, 2-(2,5-Dichlorophenylamino)-4-trifluoromethylpyrimidine-5-carboxylic acid (pyridin-4-ylmethyl)amide] | 20 to 300 | – | – |
| O=C(NCc1ccncc1)c1cnc(Nc2cccc(F)c2)nc1C(F)(F)F [Example 285, 2-(3-Fluorophenylamino)-4-trifluoromethylpyrimidine-5-carboxylic acid (pyridin-4-ylmethyl)amide] | 20 to 300 | – | – |
| O=C(NCc1ccncc1)c1cnc(Nc2cccc(Br)c2)nc1C(F)(F)F [Example 286, 2-(3-Bromophenylamino)-4-trifluoromethylpyrimidine-5-carboxylic acid (pyridin-4-ylmethyl)amide] | 20 to 300 | – | – |
| O=C(NCc1ccncc1)c1cnc(Nc2cc(Cl)cc(Cl)c2)nc1C(F)(F)F [Example 287, 2-(3,5-Dichlorophenylamino)-4-trifluoromethylprimidine-5-carboxylic acid (pyridin-4-ylmethyl)amide] | 20 to 300 | – | – |
| O=C(NCc1ccc(F)cc1)c1cnc(Nc2cccc(F)c2)nc1C(F)(F)F [Example 288, 2-(3-Fluorophenylamino)-4-trifluoromethylpyrimidine-5-carboxylic acid 4-fluorobenzyl-amide] | 20 to 300 | – | – |
| O=C(NCc1ccc(F)cc1)c1cnc(Nc2cccc(Br)c2)nc1C(F)(F)F [Example 289, 2-(3-Bromophenylamino)-4-trifluoromethylpyrimidine-5-carboxylic acid 4-fluorobenzyl-amide] | – | – | 20 to 300 |
| O=C(NCc1ccc(F)cc1)c1cnc(Nc2cc(Cl)cc(Cl)c2)nc1C(F)(F)F [Example 290, 2-(3,5-Dichlorophenylamino)-4-trifluoromethylpyrimidine-5-carboxylic acid 4-fluorobenzyl-amide] | 20 to 300 | – | – |
| N#Cc1ccc(CNC(=O)c2cnc(Nc3cc(Cl)cc(Cl)c3)nc2C(F)(F)F)cc1 [Example 291, 2-(3,5-Dichlorophenylamino)-4-trifluoromethylpyrimidine-5-carboxylic acid 4-cyanobenzylamide] | 20 to 300 | – | – |
| N#Cc1ccc(Nc2ncc(C(=O)NCc3ccccc3)c(C(F)(F)F)n2)cc1 [Example 292, 2-(4-Cyano-phenylamino)-4-trifluoromethyl-pyrimidine-5-carboxylic acid benzylamide] | 20 to 300 | > 50 | – |
| Cc1cc(CNC(=O)c2cnc(Nc3cccc(Cl)c3)nc2C(F)(F)F)ccn1 [Example 293, 2-(3-Chloro-phenylamino)-4-trifluoromethyl-pyrimidine-5-carboxylic acid (2-methyl-pyridin-4-ylmethyl)-amide hydrochloride] | 20 to 300 | – | – |
| O=C(NCc1ccnc(F)c1)c1cnc(Nc2cccc(Cl)c2)nc1C(F)(F)F [Example 294, 2-(3-Chloro-phenylamino)-4-trifluoromethyl-pyrimidine-5-carboxylic acid (2-fluoro-pyridin-4-ylmethyl)-amide] | 20 to 300 | – | – |
